Common to all, as to assay type: biochemical
One test addresses T1, MMP2 (Homo sapiens, UniProt P08253).
T1 construct: purchased Enzo Life Sciences, Inc. BML-AK408
Description: MMP-2 colorimetric inhibition assay (Enzo kit). To be noted: colorimetric thiopeptide substrate, absorbance 415 nm; read-out: MMP2 IC50 class. As to the method: (§1) The inhibitory activities of the compounds of the invention were assessed in 96-well microplate format using MMP1, MMP2, MMP9 and MMP13 colorimetric assay kits and TACE fluorometric assay kit from Enzo Life Sciences, Inc. The inhibitory effect of the compounds of the invention on ADAM10 activity were evaluated in 96-well microplate format using fluorometric assay from AnaSpec, Inc.
The MMP-2 Colorimetric Drug Discovery Kit (catalog #BML-AK408) is a complete assay system designed to screen MMP-2 inhibitors using a thiopeptide as a chromogenic substrate (Ac-PLG-[2-mercapto-4-methylpentanoyl]-LG-OC2H5). The MMP cleavage site peptide bond is replaced by a thioester bond in the thiopeptide. Hydrolysis of this bond by an MMP produces a sulfhydryl group, which reacts with DTNB [5,5′-dithiobis(2-nitrobenzoic acid), Ellman's reagent] to form 2-nitro-5-thiobenzoic acid, that can be detected spectrophotometrically.
(§2) The inhibitory activities of the compounds of the invention against MMP1, MMP2, MMP9 and MMP13 were tested according to the manufacturer's assay protocols and the absorbance at 415 nm was monitored using the Tecan Infinite® 200 Pro F Nano^+ microplate reader.
(§3) The normalized values were analyzed using GraphPadPrism 9 for Windows (GraphPad Software, San Diego, CA, USA) software by plotting inhibition curves and determining the IC50 values.
(§4) The calculated IC50 values were divided into the following classes: • A: <50 nM; B: 50-1000 nM; C: >1000-10,000 nM; D: >10,000 nM

For the next test, the target named is T2, MMP9 (Homo sapiens, UniProt P14780).
T2 construct: purchased Enzo Life Sciences, Inc. BML-AK410
As to the kind of experiment: MMP-9 colorimetric inhibition assay (Enzo kit). To be noted: colorimetric thiopeptide substrate, absorbance 415 nm; read-out: MMP9 IC50 class. As to the method: as §1
The MMP-9 Colorimetric Drug Discovery Kit (catalog #BML-AK410) is a complete assay system designed to screen inhibitors of matrix metalloproteinase-9 using a thiopeptide as a chromogenic substrate (Ac-PLG-[2-mercapto-4-methylpentanoyl]-LG-OC2H5). The MMP cleavage site peptide bond is replaced by a thioester bond in the thiopeptide. Hydrolysis of this bond by an MMP produces a sulfhydryl group, which reacts with DTNB [5,5′-dithiobis(2-nitrobenzoic acid), Ellman's reagent] to form 2-nitro-5-thiobenzoic acid, that can be detected spectrophotometrically.
as §2, §3, §4

A further test addresses T3, MMP13 (Homo sapiens, UniProt P45452).
T3 construct: purchased Enzo Life Sciences, Inc. BML-AK412
As to the kind of experiment: MMP-13 colorimetric inhibition assay (Enzo kit). To be noted: colorimetric thiopeptide substrate, absorbance 415 nm; read-out: MMP13 IC50 class. As to the method:
as §1
The MMP-13 Colorimetric Drug Discovery Kit (catalog #BML-AK412) is a complete assay system designed to screen inhibitors of matrix metalloproteinase-13 using a thiopeptide as a chromogenic substrate (Ac-PLG-[2-mercapto-4-methylpentanoyl]-LG-OC2H5). The MMP cleavage site peptide bond is replaced by a thioester bond in the thiopeptide. Hydrolysis of this bond by an MMP produces a sulfhydryl group, which reacts with DTNB [5,5′-dithiobis(2-nitrobenzoic acid), Ellman's reagent] to form 2-nitro-5-thiobenzoic acid, that can be detected spectrophotometrically.
as §2, §3, §4

T1 sequence (P08253 110-452 limits assumed): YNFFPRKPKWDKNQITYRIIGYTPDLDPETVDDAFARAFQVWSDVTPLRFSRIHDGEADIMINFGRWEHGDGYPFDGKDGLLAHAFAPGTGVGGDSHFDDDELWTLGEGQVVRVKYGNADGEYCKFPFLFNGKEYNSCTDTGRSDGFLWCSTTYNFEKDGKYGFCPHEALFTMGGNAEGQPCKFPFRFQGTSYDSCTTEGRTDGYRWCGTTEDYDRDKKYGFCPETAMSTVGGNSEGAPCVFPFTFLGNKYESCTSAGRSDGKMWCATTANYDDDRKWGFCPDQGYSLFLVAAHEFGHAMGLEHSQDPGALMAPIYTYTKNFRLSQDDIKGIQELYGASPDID
T2 sequence (P14780 94-707): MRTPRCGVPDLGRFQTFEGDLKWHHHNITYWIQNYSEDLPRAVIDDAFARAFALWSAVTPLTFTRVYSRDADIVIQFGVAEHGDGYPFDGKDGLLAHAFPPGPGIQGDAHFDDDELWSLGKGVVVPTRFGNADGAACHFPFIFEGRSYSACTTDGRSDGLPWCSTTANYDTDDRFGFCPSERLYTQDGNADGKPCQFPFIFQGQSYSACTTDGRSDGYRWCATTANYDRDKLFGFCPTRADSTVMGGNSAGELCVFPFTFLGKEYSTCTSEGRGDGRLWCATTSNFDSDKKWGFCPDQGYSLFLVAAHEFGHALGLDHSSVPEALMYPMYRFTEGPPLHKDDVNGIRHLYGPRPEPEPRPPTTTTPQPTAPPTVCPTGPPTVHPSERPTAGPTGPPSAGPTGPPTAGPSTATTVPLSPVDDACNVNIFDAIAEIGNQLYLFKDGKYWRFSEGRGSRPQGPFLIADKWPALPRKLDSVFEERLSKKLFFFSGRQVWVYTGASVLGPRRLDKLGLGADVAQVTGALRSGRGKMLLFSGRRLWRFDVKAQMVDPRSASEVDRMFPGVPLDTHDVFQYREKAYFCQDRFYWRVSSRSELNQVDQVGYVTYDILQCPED

What is called IC50 is the concentration at which inhibition is half-maximal. For `O=C(Cc1ccncc1)N1CC2CCC(C(=O)NO)(C1)N2S(=O)(=O)c1cc(F)c(Oc2ccc(Cl)cc2)c(F)c1` (centres unmarked) [Example 23, 8-((4-(4-chlorophenoxy)-3,5-difluorophenyl)sulfonyl)-N-hydroxy-3-(2-(pyridin-4-yl)acetyl)-3,8-diazabicyclo[3.2.1]octane-1-carboxamide], the IC50 at MMP2 and at MMP9 was 50 to 1000 nM throughout.

On to `O=C(CN1CCOCC1)N1CC2CCC(C(=O)NO)(C1)N2S(=O)(=O)c1cc(F)c(Oc2ccc(Cl)cc2)c(F)c1` (centres unmarked) [Example 4, 8-((4-(4-chlorophenoxy)-3,5-difluorophenyl)sulfonyl)-N-hydroxy-3-(2-morpholinoacetyl)-3,8-diazabicyclo[3.2.1]octane-1-carboxamide], for which the values for the IC50 at MMP2, on MMP13 and on MMP9 were 50 to 1000 nM, 1000 to 10000 nM and 50 to 1000 nM, respectively.

With `O=C(N1CCCCC1)N1CC2CCC(C(=O)NO)(C1)N2S(=O)(=O)c1cc(F)c(Oc2ccc(Cl)cc2)c(F)c1` (centres unmarked) [Example 6, 8-((4-(4-chlorophenoxy)-3,5-difluorophenyl)sulfonyl)-N-hydroxy-3-(piperidine-1-carbonyl)-3,8-diazabicyclo[3.2.1]octane-1-carboxamide], the IC50 at MMP2 and at MMP9 was 50 to 1000 nM each time.

Take `COCCOC(=O)N1CC2CCC(C(=O)NO)(C1)N2S(=O)(=O)c1cc(F)c(Oc2ccc(Cl)cc2)c(F)c1` (centres unmarked) [Example 1, 2-methoxyethyl 8-((4-(4-chlorophenoxy)-3,5-difluorophenyl)sulfonyl)-1-(hydroxycarbamoyl)-3,8-diazabicyclo[3.2.1]octane-3-carboxylate]: the IC50 on MMP2 lay in the range of 50 to 1000 nM.

As for `COCCOC(=O)N1C[C@@H]2CC[C@](C(=O)NO)(C1)N2S(=O)(=O)c1ccc(Oc2ccc(F)cc2)c(F)c1` [Example 31, 2-methoxyethyl (1R,5S)-8-((3-fluoro-4-(4-fluorophenoxy)phenyl)sulfonyl)-1-(hydroxycarbamoyl)-3,8-diazabicyclo[3.2.1]octane-3-carboxylate], the results for the half-maximal inhibitory concentration (IC50) at MMP2 and at MMP9 were below 50 nM and 50 to 1000 nM, respectively.

In the case of `COCCOC(=O)N1CC2CCC(C(=O)NO)(C1)N2S(=O)(=O)c1ccc(NC(=O)c2ccc(OC)cc2)cc1` (centres unmarked) [Example 17, 2-methoxyethyl 1-(hydroxycarbamoyl)-8-((4-(4-methoxybenzamido)phenyl)sulfonyl)-3,8-diazabicyclo[3.2.1]octane-3-carboxylate], the IC50 at MMP2, on MMP13 and at MMP9 was 50 to 1000 nM throughout.

For `COCCOC(=O)N1C[C@H]2CC[C@@](C(=O)NO)(C1)N2S(=O)(=O)c1ccc(Oc2ccc(F)cc2)c(F)c1` [Example 30, 2-methoxyethyl (1S,5R)-8-((3-fluoro-4-(4-fluorophenoxy)phenyl)sulfonyl)-1-(hydroxycarbamoyl)-3,8-diazabicyclo[3.2.1]octane-3-carboxylate], the IC50 at MMP2 and on MMP9 was 50 to 1000 nM in each case.

As for `COCCOC(=O)N1CC2CCC(C(=O)NO)(C1)N2S(=O)(=O)c1ccc(-c2cccc(F)c2)nc1` (centres unmarked) [Example 9, 2-methoxyethyl 8-((6-(3-fluorophenyl)pyridin-3-yl)sulfonyl)-1-(hydroxycarbamoyl)-3,8-diazabicyclo[3.2.1]octane-3-carboxylate], the figures for the IC50 at MMP2, on MMP13 and at MMP9 were 50 to 1000 nM, 1000 to 10000 nM and 1000 to 10000 nM, respectively.

For `O=C(c1ccncc1)N1CC2CCC(C(=O)NO)(C1)N2S(=O)(=O)c1cc(F)c(Oc2ccc(Cl)cc2)c(F)c1` (centres unmarked) [Example 3, 8-((4-(4-chlorophenoxy)-3,5-difluorophenyl)sulfonyl)-N-hydroxy-3-isonicotinoyl-3,8-diazabicyclo[3.2.1]octane-1-carboxamide], the concentration for half-maximal inhibition (IC50) is 50 to 1000 nM on MMP2 and 1000 to 10000 nM at MMP9.

For the compound `O=C(NO)C12CCC(CNC1)N2S(=O)(=O)c1cc(F)c(Oc2ccc(Cl)cc2)c(F)c1` (centres unmarked) [Example 32, 8-((4-(4-chlorophenoxy)-3,5-difluorophenyl)sulfonyl)-N-hydroxy-3,8-diazabicyclo[3.2.1]octane-1-carboxamide], the IC50 lay within 50 to 1000 nM at MMP2 and 1000 to 10000 nM on MMP9.

Turning to `O=C(CCN1CCOCC1)N1CC2CCC(C(=O)NO)(C1)N2S(=O)(=O)c1cc(F)c(Oc2ccc(Cl)cc2)c(F)c1` (centres unmarked) [Example 25, 8-((4-(4-chlorophenoxy)-3,5-difluorophenyl)sulfonyl)-N-hydroxy-3-(3-morpholinopropanoyl)-3,8-diazabicyclo[3.2.1]octane-1-carboxamide], the IC50 on MMP2 and on MMP9 was 50 to 1000 nM each time.

Turning to `COCCOC(=O)N1CC2CCC(C(=O)NO)(C1)N2S(=O)(=O)c1ccc(Oc2ccc(C#N)cc2)nc1` (centres unmarked) [Example 18, 2-methoxyethyl 8-((6-(4-cyanophenoxy)pyridin-3-yl)sulfonyl)-1-(hydroxycarbamoyl)-3,8-diazabicyclo[3.2.1]octane-3-carboxylate], the IC50 on MMP2, on MMP13 and on MMP9 was 50 to 1000 nM in each case.

On to `O=C(N1CCOCC1)N1CC2CCC(C(=O)NO)(C1)N2S(=O)(=O)c1cc(F)c(Oc2ccc(Cl)cc2)c(F)c1` (centres unmarked) [Example 24, 8-((4-(4-chlorophenoxy)-3,5-difluorophenyl)sulfonyl)-N-hydroxy-3-(morpholine-4-carbonyl)-3,8-diazabicyclo[3.2.1]octane-1-carboxamide], for which the IC50 at MMP2 and at MMP9 was 50 to 1000 nM in each case.

For the compound `COCCOC(=O)N1CC2CCC(C(=O)NO)(C1)N2C(=O)c1cc(F)c(Oc2ccc(Cl)cc2)c(F)c1` (centres unmarked) [Example 34, 2-methoxyethyl 8-(4-(4-chlorophenoxy)-3,5-difluorobenzoyl)-1-(hydroxycarbamoyl)-3,8-diazabicyclo[3.2.1]octane-3-carboxylate], the IC50 on MMP2, on MMP13 and on MMP9 was above 10000 nM in each case.

In the case of `O=C(CN1CCCCC1)N1CC2CCC(C(=O)NO)(C1)N2S(=O)(=O)c1cc(F)c(Oc2ccc(Cl)cc2)c(F)c1` (centres unmarked) [Example 7, 8-((4-(4-chlorophenoxy)-3,5-difluorophenyl)sulfonyl)-N-hydroxy-3-(2-(piperidin-1-yl)acetyl)-3,8-diazabicyclo[3.2.1]octane-1-carboxamide], the IC50 on MMP2 fell in the range of 50 to 1000 nM; at MMP13, 1000 to 10000 nM; on MMP9, 1000 to 10000 nM.

Take `COCCOC(=O)N1CC2CCC(C(=O)NO)(C1)N2S(=O)(=O)c1ccc(OCc2ccc(F)cc2Cl)cc1` (centres unmarked) [Example 15, 2-methoxyethyl 8-((4-((2-chloro-4-fluorobenzyl)oxy)phenyl)sulfonyl)-1-(hydroxycarbamoyl)-3,8-diazabicyclo[3.2.1]octane-3-carboxylate]: the concentration for half-maximal inhibition (IC50) at MMP2 was above 10000 nM; on MMP13 it was 1000 to 10000 nM; on MMP9, 1000 to 10000 nM.

`COCCOC(=O)N1CC2CCC(C(=O)NO)(C1)N2S(=O)(=O)c1cc(F)c(Oc2ccc(F)cc2)c(F)c1` (centres unmarked) [Example 2, 2-Methoxyethyl 8-((3,5-difluoro-4-(4-fluorophenoxy)phenyl)sulfonyl)-1-(hydroxy-carbamoyl)-3,8-diazabicyclo[3.2.1]octane-3-carboxylate]: the IC50 on MMP2 lay within 50 to 1000 nM; on MMP13 it was 1000 to 10000 nM; on MMP9, 50 to 1000 nM.
